Values belong to the molecule of their own block, whether it stands above or below them. Active and inactive are the calls of the source. The rule behind the calls is not given here.
Tests used:
TPC1 [1] = experiment: Inhibition of cell proliferation in human TPC1 cells measured after 5 days by Cell Titer Glo assay; type: functional, cell-based; settings: time 5.0 day
[2] = molecular target: Coiled-coil domain-containing protein 6/Tyrosine-protein kinase receptor RET (Homo sapiens) (UniProt P07949+Q16204); experiment: Inhibition of CCDC6-RET fusion kinase activity in human TPC1 cells upto 250 nM incubated for 24 hrs by immunoblotting analysis; type: cell-based
TPC1 [3] = experiment: Induction of CCDC6-RET fusion degradation in human TPC1 cells upto 250 nM incubated for 24 hrs by immunoblotting analysis; type: cell-based
[4] = AUC (0 to infinity) in mouse at 50 mg/kg, ip measured for 48 hrs by LC/MS/MS analysis; type: ADME, organism-based; settings: in vivo
[5] = Cmax in mouse at 50 mg/kg, ip measured for 48 hrs by LC/MS/MS analysis; type: ADME, organism-based; settings: in vivo
[6] = Tmax in mouse at 50 mg/kg, ip measured for 48 hrs by LC/MS/MS analysis; type: ADME, organism-based; settings: in vivo
[7] = Half life in mouse at 50 mg/kg, ip measured for 48 hrs by LC/MS/MS analysis; type: ADME, organism-based; settings: in vivo
TPC1 [8] = experiment: Downregulation of CDK2 expression in human TPC1 cells at 200 nM incubated for 24 hrs by TMT mass spectrometric proteomic analysis; type: functional, cell-based
TPC1 [9] = experiment: Downregulation of AURKA expression in human TPC1 cells at 200 nM incubated for 24 hrs by TMT mass spectrometric proteomic analysis; type: functional, cell-based
TPC1 [10] = experiment: Downregulation of AURKB expression in human TPC1 cells at 200 nM incubated for 24 hrs by TMT mass spectrometric proteomic analysis; type: functional, cell-based
TPC1 [11] = experiment: Downregulation of MKI67 expression in human TPC1 cells at 200 nM incubated for 24 hrs by TMT mass spectrometric proteomic analysis; type: functional, cell-based
TPC1 [12] = experiment: Downregulation of CDKN1B expression in human TPC1 cells at 200 nM incubated for 24 hrs by TMT mass spectrometric proteomic analysis; type: functional, cell-based

Coiled-coil domain-containing protein 6/Tyrosine-protein kinase receptor RET (Homo sapiens), sequence (P07949 29-1114 limits assumed): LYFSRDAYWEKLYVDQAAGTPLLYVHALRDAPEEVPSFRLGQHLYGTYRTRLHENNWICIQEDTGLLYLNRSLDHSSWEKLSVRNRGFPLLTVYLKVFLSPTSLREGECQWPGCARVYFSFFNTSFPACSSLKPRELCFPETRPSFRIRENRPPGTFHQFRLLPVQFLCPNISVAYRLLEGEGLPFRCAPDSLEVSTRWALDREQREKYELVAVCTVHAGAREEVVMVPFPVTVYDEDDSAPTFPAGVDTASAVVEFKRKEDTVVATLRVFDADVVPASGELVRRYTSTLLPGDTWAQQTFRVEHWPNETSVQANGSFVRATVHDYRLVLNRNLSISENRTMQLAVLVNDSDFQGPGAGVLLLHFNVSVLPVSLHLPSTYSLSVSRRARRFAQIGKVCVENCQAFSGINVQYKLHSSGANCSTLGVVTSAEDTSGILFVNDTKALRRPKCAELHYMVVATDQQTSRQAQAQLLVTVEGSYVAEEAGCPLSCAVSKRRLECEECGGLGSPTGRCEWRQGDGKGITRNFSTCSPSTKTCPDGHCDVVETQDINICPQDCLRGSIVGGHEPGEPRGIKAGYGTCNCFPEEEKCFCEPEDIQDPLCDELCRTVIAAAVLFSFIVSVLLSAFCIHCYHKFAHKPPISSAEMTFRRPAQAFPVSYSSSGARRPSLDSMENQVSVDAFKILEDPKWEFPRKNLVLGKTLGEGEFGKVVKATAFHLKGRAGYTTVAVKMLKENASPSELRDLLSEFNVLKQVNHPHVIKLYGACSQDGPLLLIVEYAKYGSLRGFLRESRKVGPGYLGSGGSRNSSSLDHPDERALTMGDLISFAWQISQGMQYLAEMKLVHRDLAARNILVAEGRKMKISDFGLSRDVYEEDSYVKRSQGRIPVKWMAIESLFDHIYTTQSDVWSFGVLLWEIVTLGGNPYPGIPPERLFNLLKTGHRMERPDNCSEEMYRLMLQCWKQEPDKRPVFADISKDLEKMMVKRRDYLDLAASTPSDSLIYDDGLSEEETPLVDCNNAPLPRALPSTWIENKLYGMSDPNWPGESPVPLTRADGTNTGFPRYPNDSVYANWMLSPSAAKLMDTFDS
Coiled-coil domain-containing protein 6/Tyrosine-protein kinase receptor RET (Homo sapiens), sequence (Q16204 2-474 partner limits assumed): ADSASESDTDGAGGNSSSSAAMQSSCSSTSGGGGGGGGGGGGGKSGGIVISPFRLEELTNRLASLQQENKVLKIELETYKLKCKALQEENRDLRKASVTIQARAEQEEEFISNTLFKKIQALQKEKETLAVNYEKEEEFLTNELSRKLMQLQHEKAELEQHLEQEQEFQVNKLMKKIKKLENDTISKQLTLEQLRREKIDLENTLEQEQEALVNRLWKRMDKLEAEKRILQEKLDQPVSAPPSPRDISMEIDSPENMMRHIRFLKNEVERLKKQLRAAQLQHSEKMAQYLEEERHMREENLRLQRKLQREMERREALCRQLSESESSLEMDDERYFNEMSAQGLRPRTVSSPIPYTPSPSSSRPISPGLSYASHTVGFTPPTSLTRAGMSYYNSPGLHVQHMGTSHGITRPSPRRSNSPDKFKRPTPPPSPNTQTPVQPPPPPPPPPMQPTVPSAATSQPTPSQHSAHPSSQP

inhibition [2]: Active
SMILES: COc1ccc(CN2C3CC2CN(c2ccc(-c4cc(OCCCCCCCC(=O)N5CCN(c6ccc(C(=O)NCCOc7ccc(C8CCC(=O)N(C)C8=O)cc7)cn6)CC5)cn5ncc(C#N)c45)cn2)C3)cn1 (stereo not drawn)
inhibition (TPC1 [1]): Active | Activity (TPC1 [3]): inactive

SMILES: COc1ccc(CN2C3CC2CN(c2ccc(-c4cc(OCCCC(=O)NC5CC6(CCN(c7ccc(C(=O)NCCOc8ccc(C9CCC(=O)NC9=O)cc8)cc7)CC6)C5)cn5ncc(C#N)c45)cn2)C3)cn1 (stereo not drawn)
inhibition (TPC1 [1]): Active | AUC ([4]; ip, 50 mg/kg, 48 h): 2.3421 µg·h/mL | Cmax ([5]; ip, 50 mg/kg, 48 h): 0.0449 µg/mL | Tmax ([6]; ip, 50 mg/kg, 48 h): 0.17 h | t1/2 ([7]; ip, 50 mg/kg, 48 h): 0.25 h

SMILES: COc1ccc(CN2C3CC2CN(c2ccc(-c4cc(OCCCC(=O)N5CCC(N6CCC(C#Cc7ccc(C(=O)NCC#Cc8ccc9c(c8)CN(C8CCC(=O)NC8=O)C9=O)cc7)CC6)CC5)cn5ncc(C#N)c45)cn2)C3)cn1 (stereo not drawn)
inhibition (TPC1 [1]): Active | AUC(0-inf) [4]: 3.67 µg·h/mL | Cmax ([5]; read-out: Cmax): 1.14 µg/mL | Tmax ([6]; read-out: Tmax): 1 h | half-life [7]: 7.3 h

SMILES: COc1ccc(CN2C3CC2CN(c2ccc(-c4cc(OCC(C)(C)O)cn5ncc(C#N)c45)cn2)C3)cn1
Activity (TPC1 [8]): Active | Activity (TPC1 [9]): Active | Activity (TPC1 [10]): Active | Activity (TPC1 [11]): Active | Activity (TPC1 [12]): Active

— ChEMBL document CHEMBL6087469, “Targeting Oncogenic RET Kinase by Simultaneously Inhibiting Kinase Activity and Degrading the Protein” (J Med Chem, 2025)
